Data taken from paper PMC6837341, “Evolutionarily conserved susceptibility of the mitochondrial respiratory chain to SDHI pesticides and its consequence on the impact of SDHIs on human cultured cells” (PLoS ONE, 2019).
Read-outs that look alike come from different tables or passages of the source.

Key:
[1] = target: T1, glycerol-3-phosphate cytochrome c reductase (G3PDH+CIII) (Lumbricus terrestris, UniProt Q34945); experiment: GCCR activity, earthworm homogenate; type: biochemical
T1 sequence (Q34945 1-379): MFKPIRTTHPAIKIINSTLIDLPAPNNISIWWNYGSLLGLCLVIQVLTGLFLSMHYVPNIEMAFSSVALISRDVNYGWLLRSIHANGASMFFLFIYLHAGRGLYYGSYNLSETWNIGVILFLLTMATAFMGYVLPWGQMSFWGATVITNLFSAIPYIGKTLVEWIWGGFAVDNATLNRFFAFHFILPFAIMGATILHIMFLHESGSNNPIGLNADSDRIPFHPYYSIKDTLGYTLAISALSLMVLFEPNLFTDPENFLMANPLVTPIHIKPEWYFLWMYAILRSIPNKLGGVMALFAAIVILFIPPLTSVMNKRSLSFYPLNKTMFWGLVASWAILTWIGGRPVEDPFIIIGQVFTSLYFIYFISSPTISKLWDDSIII
Method: L. terrestris individuals (n = 5) were collected manually in a household compost in Epernon (France 28230) and identified by the person (Paule Bénit) in charge of this compost. Before use, the worms were washed 5 times with 1× phosphate-buffered saline. A fresh homogenate was prepared from the segments located between the prostomium and clitellum of the 5 individuals. Tissues were placed in 500 μl of an ice-cold medium consisting of 20 mM Tris (pH 7.2), 0.25 M sucrose, 40 mM KCl, 2 mM EGTA, and 1 mg/ml BSA and homogenized using a 1-ml glass-glass Potter-Elvehjem homogenizer. Low-speed centrifugation at 1,500 g for 5 min allowed heavy debris to be discarded. The supernatant was distributed as 50-μl aliquots and kept frozen at -80°C.
(§1) RC enzyme activities were spectrophotometrically measured using a pseudo-double-wavelength spectrophotometer (Cary 60, Agilent). Malonate-sensitive succinate quinone dichlorophenolindophenol (DCPIP) reductase (SQDR), as an indicator of the activity of the isolated SDH enzyme (isolated CII), and glycerol-3-phosphate quinone DCPIP reductase (GQDR), as a measure of the activity of the isolated glycerol-3-phosphate dehydrogenase (G3PDH), were assayed as previously described. […] With this aim, we measured the malonate-sensitive succinate cytochrome c reductase (SDH+CIII), glycerol-3-phosphate cytochrome c reductase (G3PDH+CIII) and antimycin-sensitive quinol cytochrome c reductase (CIII) as previously described.
(§2) The effects of eight different SDHIs (up to 500 μM; S2 Fig) were determined on four different biological materials. Because IC50 are known to be affected by the actual absolute activity of the tested enzyme, these IC50 were quantified using similar levels of SDH enzyme activity during the assay. IC50 values were determined using the AAT Bioquest IC50 calculator tool (https://www.aatbio.com/tools/ic50-calculator).

[2] = target: T2, glycerol-3-phosphate cytochrome c reductase (G3PDH+CIII) (Apis mellifera, UniProt P34845); experiment: GCCR activity, honeybee crude mitochondria; type: biochemical
T2 sequence (P34845 1-383): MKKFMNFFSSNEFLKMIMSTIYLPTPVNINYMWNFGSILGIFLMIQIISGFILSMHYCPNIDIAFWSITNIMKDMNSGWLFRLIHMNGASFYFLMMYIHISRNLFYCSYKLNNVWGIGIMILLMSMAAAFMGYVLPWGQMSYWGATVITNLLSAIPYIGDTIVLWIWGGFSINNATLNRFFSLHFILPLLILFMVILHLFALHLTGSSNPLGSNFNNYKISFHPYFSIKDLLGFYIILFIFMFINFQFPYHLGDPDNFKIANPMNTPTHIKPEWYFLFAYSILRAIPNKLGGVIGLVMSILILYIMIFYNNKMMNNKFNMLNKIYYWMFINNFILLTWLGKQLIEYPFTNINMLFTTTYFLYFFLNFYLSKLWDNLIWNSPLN
Method: A. mellifera individuals (n = 5) were a kind gift from Jacques Kemp (beekeeper; Saint-Rémy-lès-Chevreuse, Yvelines, France). Whole bodies of individuals frozen in dry ice, except heads, were homogenized using a 1 ml glass-glass Potter-Elvehjem homogenizer in an ice-cold medium consisting of 20 mM Tris (pH 7.2), 0.25 M sucrose, 40 mM KCl, 2 mM EGTA, and 1 mg/ml BSA. The homogenate was centrifuged at 1,500 g for 5 min. The mitochondria contained in the supernatant were spun down at 10,000 g for 10 min. The pellet of crude mitochondria was distributed as 20-μl aliquots and kept frozen at -80°C.
as §1, §2

[3] = Acceptable Daily Intake according to European regulations and corresponding blood concentration
Method: It is extremely hazardous to compare the IC50 values obtained in vitro under laboratory conditions with the concentrations of SDHI that might result from the application of these pesticides on crops. One can however reliably determine the concentration of SDHI at the outlet of the diffusion nozzles. In the case of bixafen, it is about 0.6 to 1.8 mM according to the recommendations distributed to farmers, resulting in a cloud of nebulization, corresponding to 75–125 g/hectare of bixafen. The final exposition depends on numerous factors hard to control, including the spreading conditions, the nature of the ground, its vegetation cover, etc. From a regulatory point of view, the ADI for example for boscalid and bixafen amounts to 0.04 and 0.02 mg / kg / day, respectively (see legend S2 Fig). For an average adult (60 kg / blood volume 5 l), this correspond to a blood concentration of approximately 1.40 and 0.58 μM, respectively.
Supplementary file pone.0224132.s003.pdf: S2 Fig SDHI molecular structure. The yellow and blue parts for each molecule are reminiscent of the predecessor carboxin structure (top). […] ADI; Acceptable Daily Intake according to European regulations. (PDF) Click here for additional data file.

| Structure (SMILES) | IC50 [1] | IC50 [2] | Blood concentration corresponding to the ADI [3] | Blood concentration corresponding to the ADI ([3]; average adult 60 kg, blood volume 5 l) |
| --- | --- | --- | --- | --- |
| Cc1nn(C)c(F)c1C(=O)Nc1ccccc1C(C)CC(C)C (centres unmarked) [Penflufen, penflufen] | > 500 µM | > 500 µM |  |  |
| Cn1cc(C(=O)Nc2ccc(F)cc2-c2ccc(Cl)c(Cl)c2)c(C(F)F)n1 [Bixafen, bixafen] | 450 µM | 24.1 µM | 580 nM |  |
| Cn1cc(C(=O)Nc2ccccc2-c2cc(F)c(F)c(F)c2)c(C(F)F)n1 [Fluxapyroxad, fluxapyroxad] | > 500 µM | 205 µM | 580 nM |  |
| CC(C)C1C2CCC1c1c(NC(=O)c3cn(C)nc3C(F)F)cccc12 (centres unmarked) [Isopyrazam, isopyrazam] | 83 µM | 97 µM |  |  |
| O=C(Nc1ccccc1-c1ccc(Cl)cc1)c1cccnc1Cl [Boscalid, boscalid] |  |  |  | approximately 1.40 μM |
